Test results published in patent US7820665B2, “Imidazopyridazine inhibitors of PI3 kinase for cancer treatment” (Amgen Inc., priority 2007, dated 2010).
Where two headings read alike, the source gives them in different places.

Experiments:
PI3Kα = target: T1, PI3Kα (Homo sapiens, UniProt P42336); assay: In vitro PI3 kinase enzyme assay (PI3K ATPLoss); format: biochemical; settings: recombinant p110α/p85, residual ATP by bioluminescence
T1 construct: Full length p110 subunits of PI3K α, β and δ, N-terminally labeled with polyHis tag; polyHis (N); made in house; host or cells: Sf9 insect cells (baculovirus)
Experimental: Full length p110 subunits of PI3K α, β and δ, N-terminally labeled with polyHis tag, can be co-expressed with p85 with Baculo virus expression vectors in sf9 insect cells. P110/p85 heterodimers can be purified by sequential Ni-NTA, Q-HP, Superdex-100 chromatography. Purified α, β and δ isozymes can be stored at −20° C. in 20 mM Tris, pH 8, 0.2M NaCl, 50% glycerol, 5 mM DTT, 2 mM Na cholate. Truncated PI3Kγ, residues 114-1102, N-terminally labeled with polyHis tag, can be expressed with Baculo virus in Hi5 insect cells. The γ isozyme can be purified by sequential Ni-NTA, Superdex-200, Q-HP chromatography. The γ isozyme can be stored frozen at −80° C. in NaH2PO4, pH 8, 0.2M NaCl, 1% ethylene glycol, 2 mM β-mercaptoethanol.
PI3K enzyme assays (alpha, beta, delta and gamma) can be performed in 25 μL with the above final concentrations of components in white polyproplyene plates. Phosphatidyl inositol phosphoacceptor, PtdIns(4,5)P2 (e.g. P4508) can be obtained from Echelon Biosciences, Salt Lake City, Utah. The ATPase activity of the alpha and gamma isozymes may not be greatly stimulated by PtdIns(4,5)P2 under these conditions, it can be omitted from the assay of these isozymes. Test compounds can be dissolved in DMSO and diluted with three-fold serial dilutions. The compound in DMSO (1 μL) may be added per test well, and the inhibition relative to reactions containing no compound, with and without enzyme can be determined. After assay incubation at RT, the reaction can be stopped and residual ATP can be determined by addition of an equal volume of a commercial ATP bioluminescence kit (Perkin Elmer EasyLite, Perkin Elmer, Waltham, Mass.) according to the manufacturer's instructions, and detected using an Analyst GT luminometer.

[1] = test system: phosphorylation of Akt at Serine 473 in U87 MG cells; assay: pAkt AlphaScreen (U87 Cell); format: cell-based; settings: 2 h compound, pAkt Ser473 AlphaScreen
Experimental: The pAkt AlphaScreen® assay (PerkinElmer, Waltham, Mass.) determines whether there is phosphorylation of Akt at Serine 473 by recruitment of a phosphospecific antibody. This assay was performed using U87 MG cells. The U87 growth media consists of MEM (Gibco, Carlsbad, Calif.) supplemented with 10% FBS (Gibco), 1× Non-Essential Amino Acids (Gibco) and 1× Penicillin/Streptomycin/Glutamine (Gibco). The cells were maintained weekly using 0.05% Trypsin (Gibco) and replated in 150 mm TC-Treated Culture Dishes (Corning, Corning, N.Y.).
The first day of the assay, the adherent cells were trypsinized, media was added to the loose cells and cells were mixed to a homogenous mixture. 0.5 ml of the homogenous mixture was counted on the Beckman Coulter® Vi-CELL™ XR (Fullerton, Calif.). 50 frames of cells were counted and the number of viable cells was determined. The cells were then diluted to 0.25 million cells per ml, and centrifuged at 200 rcf for 5 minutes. The media was removed and the cells were reconstituted in fresh media for plating. The cells were plated at 20 μl per well on the PerkinElmer® Flexprop PLUS in Low Volume 384 Well White Tissue Culture Plates (Corning) with a final cell density of 5K cells per well. The plates were incubated overnight at 37° Celsius, 5% CO2.
On the second day, the compound plates were prepared, the cells were treated with compound and the pAkt reaction mix was added to the cell lysate. 384 well compound plates were prepared containing 1 μl of compound per well starting at 5 mM and diluted 1:2 across the row, resulting in a 22 well serial dilution. 39 μl of growth media was added to the compound plate in rows 1-22 using the PerkinElmer® FlexDrop PLUS resulting in a DMSO concentration of 2.5%. The cell plates and diluted compound plates were put onto the VELOCITY11™ VPREP™ 384 ST where the compound plate was mixed and 5 μl of serially diluted compound or controls was added to the cell plate. The final concentration of the compounds was 25 μM serially diluted to 11.9 pM in 0.5% DMSO. The cell plates were then incubated with compound for two hours at 37° Celsius, 5% CO2. After two hours, the media in the cell plates was aspirated using the BioTek® ELx405HT plate washer (Winooski, Vt.) removing the majority of media and compound without disturbing the adherent U87 cells. The following assay reagents are components of the SureFire® Akt (Ser 473) Phosphorylation 50K Point Kit (TGR BioSciences, Adelaide, Australia) and an IgG Detection Kit (PerkinElmer, Waltham, Mass.). 5 μl of 1× Lysis Buffer was added to each well using the PerkinElmer® FlexDrop PLUS. The plates were then incubated at room temperature on a shaker for ten minutes. The AlphaScreen® reaction was prepared under low light conditions (subdued or green light) including p-Akt (Ser 473) Reaction Buffer, Dilution Buffer, Activation Buffer, Acceptor Beads and Donor Beads at a ratio of 40:20:10:1:1 respectively. The AlphaScreen® reaction was added to the cell lysate at 6 μl per well using the PerkinElmer® FlexDrop PLUS. The plates were placed in a humid environment to reduce edge effects and incubated overnight at room temperature with restricted air flow in the dark.
On the final day of the experiment, the plates were read on the PerkinElmer® EnVision™ 2103 Multilable Reader using the standard AlphaScreen® readout. The POC is calculated and the data is analyzed to report the IC50 IP for pAkt at Serine 473.

[2] = test system: Akt phosphorylation at Ser473 in HCT116 cells; assay: Cell-based phospho-AKT Ser473 assay (HCT116 Cell), MSD sandwich immunoassay;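 note: IGF-1 added at 100 ng/mL for 15 min after compound treatment, electrochemiluminescent readout of phospho-Akt, DMSO-only wells define maximum signal, IC50 reflects inhibition of phosphorylation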
From the text: This assay determines the ability of a compound to inhibit the phosphorylation of Serine 472 in Akt using a MSD based sandwich immunoassay (Meso Scale Detection, Meso Scale Discovery (MSD), Gaithersburg, Md.). HCT116 human colon carcinoma cell lines can be grown in McCoy's 5A growth medium (GIBCO, Carlsbad, Calif.) containing 10% FBS (GIBCO, Carlsbad, Calif.) and X1 Penicillin-streptomycin-glutamine (GIBCO, Carlsbad, Calif.). Prior to the assay, cells can be detached from the culture flask with trypsin, and re-suspended in complete media to give a final concentration of 1.6×10^5 cells per mL. Aliquots (100 μl) of the HCT116 cell suspension can be seeded into each well of a 96 well tissue culture plate to give a final density of 16,000 cells per well. Cells can then be incubated overnight at 37° C.
The following day the cells can be treated with serially diluted test compounds and incubated for 2 hours at 37° C. The culture media on the HCT 116 cells can be replaced with 189 μL McCoys media, supplemented with 0.1% BSA (ICN Biomedicals, Inc., Costa Mesa, Calif.). […] Aliquots (1 μL) of serially-diluted compounds can be transferred to 96 well tissue culture plates containing the HCT 116 cells. […] As a maximum response control, wells can contain 0.5% DMSO in place of compound. The plates can be mixed at 700 rpm for 2 min to ensure even distribution of the test compound and incubated for 2 hours at 37° C. Cells can then be stimulated with insulin-like growth factor 1 (Sigma, St Louis, Mo.) at final concentration of 100 ng/mL for 15 minutes at 37° C. The media can then be removed and the cells treated with 80 μL cell-lysis buffer (MSD) containing a cocktail of protease and phosphatase inhibitors for one hour at 4° C.
25 μL Cell lysate can then be transferred to pre-blocked MSD assay plates pre-coated with a capture antibody specific for Akt, and the plates can be incubated for 2 hours at room temperature. The cell lysates can then be removed and plates can then be washed four times with 200 μl per well of Tris wash buffer (500 mM Tris, PH 7.5, 1.5 M NaCl, 0.2% Tween-20). Subsequently cells can be incubated for 1 hour at room temperature with a 25 μL solution containing the detection antibody, anti-phospho Akt (Ser 473) labeled with an electrochemiluminescent compound (Meso Scale Discovery SULPHO-TAG™ label, MSD, Gaithersburg, Md.). The detection antibody can be removed and plates can then be washed four times with 200 μL per well of Tris wash buffer. An aliquot of 150 μL of diluted MSD read buffer can then be applied to each well, and the electrochemiluminescent signal can be measured using a MSD SECTOR™ plate reader (Meso Scale Discovery, Gaithersburg, Md.). This instrument measures the intensity of emitted light to determine a quantitative measure of phosphorylated Akt in each well. The dose-response data obtained with each compound can be analyzed and the IC50 inhibition of Akt phosphorylation at Ser473 can be calculated.

[3] = Homo sapiens, HCT-116, 2 h, read-out: HCT116 Cell IC50, HCT116 cells, 2 h compound, IGF-1 stimulation, pAkt Ser473
[4] = read-out: HCT116 Cell IC50, HCT116 cells, 2 h compound, IGF-1 stimulation, pAkt Ser473

T1 sequence (P42336 whole entry, species assumed): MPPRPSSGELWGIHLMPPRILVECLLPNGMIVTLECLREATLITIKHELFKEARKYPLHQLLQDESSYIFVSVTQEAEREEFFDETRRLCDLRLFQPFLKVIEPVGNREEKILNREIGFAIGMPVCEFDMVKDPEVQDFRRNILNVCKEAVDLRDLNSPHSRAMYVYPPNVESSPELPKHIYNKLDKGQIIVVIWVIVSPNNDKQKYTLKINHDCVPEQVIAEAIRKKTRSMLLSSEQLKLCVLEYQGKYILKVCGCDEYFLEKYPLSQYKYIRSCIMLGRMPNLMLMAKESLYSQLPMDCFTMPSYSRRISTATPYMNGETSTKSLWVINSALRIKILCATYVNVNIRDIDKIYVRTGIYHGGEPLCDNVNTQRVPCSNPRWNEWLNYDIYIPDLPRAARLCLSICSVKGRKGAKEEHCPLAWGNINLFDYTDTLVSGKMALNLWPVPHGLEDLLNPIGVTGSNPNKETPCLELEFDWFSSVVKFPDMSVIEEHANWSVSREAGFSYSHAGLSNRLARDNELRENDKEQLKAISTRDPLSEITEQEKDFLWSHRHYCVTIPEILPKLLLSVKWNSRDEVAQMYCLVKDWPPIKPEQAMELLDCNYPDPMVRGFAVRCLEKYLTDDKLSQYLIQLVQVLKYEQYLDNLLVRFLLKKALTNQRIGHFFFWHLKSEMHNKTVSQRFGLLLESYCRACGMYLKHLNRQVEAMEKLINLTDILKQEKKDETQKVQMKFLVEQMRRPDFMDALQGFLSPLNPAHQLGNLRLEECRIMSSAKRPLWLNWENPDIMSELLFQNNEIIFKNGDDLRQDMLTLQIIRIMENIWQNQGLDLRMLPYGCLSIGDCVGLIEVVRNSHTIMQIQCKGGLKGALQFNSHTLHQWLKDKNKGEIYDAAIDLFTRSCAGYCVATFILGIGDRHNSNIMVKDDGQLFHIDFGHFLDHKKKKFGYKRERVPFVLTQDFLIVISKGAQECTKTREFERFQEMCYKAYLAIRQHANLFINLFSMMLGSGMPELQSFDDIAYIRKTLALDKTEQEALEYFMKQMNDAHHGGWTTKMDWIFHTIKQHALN
T1 sequence (P27986 whole entry partner, species assumed): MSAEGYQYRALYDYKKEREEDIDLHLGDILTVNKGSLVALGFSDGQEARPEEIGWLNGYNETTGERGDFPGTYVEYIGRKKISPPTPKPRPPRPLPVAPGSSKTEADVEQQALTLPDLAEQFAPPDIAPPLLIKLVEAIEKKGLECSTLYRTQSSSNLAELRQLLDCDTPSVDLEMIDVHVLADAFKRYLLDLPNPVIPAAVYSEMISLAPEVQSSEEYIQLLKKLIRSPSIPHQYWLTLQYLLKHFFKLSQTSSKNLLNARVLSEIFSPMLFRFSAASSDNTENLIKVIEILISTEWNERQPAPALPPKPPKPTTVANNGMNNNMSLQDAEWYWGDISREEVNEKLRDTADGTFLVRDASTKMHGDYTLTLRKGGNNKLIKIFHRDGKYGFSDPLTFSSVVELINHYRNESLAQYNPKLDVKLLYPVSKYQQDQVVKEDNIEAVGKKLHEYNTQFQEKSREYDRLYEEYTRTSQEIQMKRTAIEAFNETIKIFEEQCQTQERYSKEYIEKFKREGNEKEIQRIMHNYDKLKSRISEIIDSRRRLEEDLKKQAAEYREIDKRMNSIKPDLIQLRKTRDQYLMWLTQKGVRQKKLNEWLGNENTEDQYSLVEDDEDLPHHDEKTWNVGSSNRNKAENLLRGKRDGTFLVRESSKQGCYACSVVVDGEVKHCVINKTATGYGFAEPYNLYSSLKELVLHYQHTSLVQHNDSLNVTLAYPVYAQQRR

| SMILES | IC50 (PI3Kα) [nM] | IC50 ([1]; Homo sapiens, U-87 MG, 2 h) [nM] | IC50 [2, 3] [nM] | IC50 [2, 4] [nM] | IC50 [1] [nM] |
| --- | --- | --- | --- | --- | --- |
| CC(=O)Nc1cn2nc(-c3cnc(Cl)c(NS(=O)(=O)c4c(C)cccc4Cl)c3)ccc2n1 [Example 34, N-(6-(6-Chloro-5-(2-chloro-6-methylphenylsulfonamido)pyridin-3-yl)imidazo[1,2-b]pyridazin-2-yl)acetamide] | 7 | 7 | 3 | – | – |
| Nc1cn2nc(-c3cnc(Cl)c(NS(=O)(=O)c4ccc(F)cc4)c3)ccc2n1 [Example 36, N-(5-(2-Aminoimidazo[1,2-b]pyridazin-6-yl)-2-chloropyridin-3-yl)-4-fluorobenzenesulfonamide] | 83 | 415 | – | 2430 | – |
| CNC(C)c1ccc(S(=O)(=O)Nc2cc(-c3ccc4nc(NC(C)=O)cn4n3)cnc2Cl)cc1 (single isomer, unassigned) [Example 39, N-(6-(6-chloro-5-(4-(1-(methylamino)ethyl)phenylsulfonamido)pyridin-3-yl)imidazo[1,2-b]pyridazin-2-yl)acetamide] | 8 | – | – | 105 | 28 |
| CC(=O)Nc1cn2nc(-c3cnc(Cl)c(NS(=O)(=O)c4ccc(C(C)(C)O)cc4)c3)ccc2n1 [Example 35, N-(6-(6-Chloro-5-(4-(2-hydroxypropan-2-yl)phenylsulfonamido)pyridin-3-yl)imidazo[1,2-b]pyridazin-2-yl)acetamide] | 6 | 34 | 49 | – | – |
| CNC(C)c1ccc(S(=O)(=O)Nc2cc(-c3ccc4nc(NC(C)=O)cn4n3)cnc2Cl)cc1 (single isomer, unassigned) [Example 38, N-(6-(6-chloro-5-(4-(1-(methylamino)ethyl)phenylsulfonamido)pyridin-3-yl)imidazo[1,2-b]pyridazin-2-yl)acetamide] | 6 | 31 | 124 | – | – |
| CC(=O)Nc1cn2nc(-c3cnc(Cl)c(NS(=O)(=O)c4ccc(F)cc4)c3)ccc2n1 [Example 12, N-(6-(6-chloro-5-(4-fluorophenylsulfonamido)pyridin-3-yl)imidazo[1,2-b]pyridazin-2-yl)acetamide] | 7 | 14 | 31 | – | – |
| CC(=O)Nc1cn2cc(-c3cnc(Cl)c(NS(=O)(=O)c4ccc(F)cc4)c3)ccc2n1 [Example 28, N-(6-(6-Chloro-5-(4-fluorophenylsulfonamido)pyridin-3-yl)imidazo[1,2-a]pyridin-2-yl)acetamide] | 9 | 118 | – | 46 | – |
| CC(=O)Nc1cn2nc(-c3cnc(Cl)c(NS(=O)(=O)c4cccc(OC(F)F)c4)c3)ccc2n1 [Example 33, N-(6-(6-Chloro-5-(3-(difluoromethoxy)phenylsulfonamido)pyridin-3-yl)imidazo[1,2-b]pyridazin-2-yl)acetamide] | 7 | 15 | 24 | – | – |
| CC(=O)Nc1cn2nc(-c3cnc(Cl)c(NS(C)(=O)=O)c3)ccc2n1 [Example 19, N-(6-(6-Chloro-5-(methylsulfonamido)pyridin-3-yl)imidazo[1,2-b]pyridazin-2-yl)acetamide] | 5.7 | 133 | 218 | – | – |
